Publication PMC5218480 (PLoS ONE, 2017)

Tested on: MV-4-11 cells
Assay: Gene expression microarray analysis (Affymetrix PrimeView) and GSEA
Format: cell-based, human
Set-up: RFU PODN (11730768_x_at) / Fold change /veh PODN (11730768_x_at) / RFU LINC00158 (11744669_a_at) / Fold change /veh LINC00158 (11744669_a_at) / RFU DUSP10 (11751237_a_at) / Fold change /veh DUSP10 (11751237_a_at) / RFU ID3 (11757404_x_at) / Fold change /veh ID3 (11757404_x_at) / RFU PLEKHG5 (11737974_s_at) / Fold change /veh PLEKHG5 (11737974_s_at) / RFU LRRC4B (11730491_at) / Fold change /veh LRRC4B (11730491_at) / RFU GIMAP4 (11747438_a_at) / Fold change /veh GIMAP4 (11747438_a_at) / RFU KRT8 (11758183_x_at) / Fold change /veh KRT8 (11758183_x_at) / RFU CNN1 (11734310_a_at) / Fold change /veh CNN1 (11734310_a_at) / RFU VPS37D (11726825_at) / Fold change /veh VPS37D (11726825_at) / RFU C10orf10 (11716522_x_at) / Fold change /veh C10orf10 (11716522_x_at) / RFU KIR2DL2 /// KIR2DL4 /// KIR2DL5A /// KIR2DL5B /// KIR2DS1 /// KIR2DS2 /// KIR2DS3 /// KIR2DS4 /// KIR3DL3 /// KIR3DL3 /// KIR3DS1 (11738374_at) / Fold change /veh KIR2DL2 /// KIR2DL4 /// KIR2DL5A /// KIR2DL5B /// KIR2DS1 /// KIR2DS2 /// KIR2DS3 /// KIR2DS4 /// KIR3DL3 /// KIR3DL3 /// KIR3DS1 (11738374_at) / RFU C1QL1 (11718748_at) / Fold change /veh C1QL1 (11718748_at) / RFU TMPRSS4 (11747572_a_at) / Fold change /veh TMPRSS4 (11747572_a_at) / RFU HAMP (11756126_x_at) / Fold change /veh HAMP (11756126_x_at) / RFU RNFT2 (11725882_a_at) / Fold change /veh RNFT2 (11725882_a_at) / RFU NR4A2 (11747474_a_at) / Fold change /veh NR4A2 (11747474_a_at) / RFU ABCC12 (11746883_a_at) / Fold change /veh ABCC12 (11746883_a_at) / RFU TMEM136 (11760407_x_at) / Fold change /veh TMEM136 (11760407_x_at) / RFU CLDN22 /// WWC2 (11732394_at) / Fold change /veh CLDN22 /// WWC2 (11732394_at) / RFU HLA-DPB1 (11760878_x_at) / Fold change /veh HLA-DPB1 (11760878_x_at) / RFU SPINT1 (11716480_a_at) / Fold change /veh SPINT1 (11716480_a_at) / RFU GAP43 (11754022_s_at) / Fold change /veh GAP43 (11754022_s_at) / RFU A4GNT (11735810_at) / Fold change /veh A4GNT (11735810_at) / RFU PRB3 (11715151_x_at) / Fold change /veh PRB3 (11715151_x_at) / RFU TUBB4B (11761932_at) / Fold change /veh TUBB4B (11761932_at) / RFU CAPN14 (11732068_a_at) / Fold change /veh CAPN14 (11732068_a_at) / RFU TMCC2 (11721928_a_at) / Fold change /veh TMCC2 (11721928_a_at) / RFU IRGQ (11745062_a_at) / Fold change /veh IRGQ (11745062_a_at) / RFU FAM174B (11720279_a_at) / Fold change /veh FAM174B (11720279_a_at) / RFU TMPRSS4 (11748680_a_at) / Fold change /veh TMPRSS4 (11748680_a_at) / RFU FAM212B (11763350_a_at) / Fold change /veh FAM212B (11763350_a_at) / RFU PLEKHG5 (11743358_a_at) / Fold change /veh PLEKHG5 (11743358_a_at) / RFU ZSCAN30 (11745921_a_at) / Fold change /veh ZSCAN30 (11745921_a_at) / RFU CMKLR1 (11741424_a_at) / Fold change /veh CMKLR1 (11741424_a_at) / RFU LOC101060620 /// MAPK8IP1 (11723275_at) / Fold change /veh LOC101060620 /// MAPK8IP1 (11723275_at) / RFU SPTSSB (11747773_x_at) / Fold change /veh SPTSSB (11747773_x_at) / RFU PRSS12 (11739890_at) / Fold change /veh PRSS12 (11739890_at) / RFU BIN1 (11741810_x_at) / Fold change /veh BIN1 (11741810_x_at) / RFU WNT11 (11732464_a_at) / Fold change /veh WNT11 (11732464_a_at) / RFU C10orf10 (11716521_a_at) / Fold change /veh C10orf10 (11716521_a_at) / RFU C5orf56 (11738089_at) / Fold change /veh C5orf56 (11738089_at) / RFU CYB561 (11721691_x_at) / Fold change /veh CYB561 (11721691_x_at) / RFU ANKRD19P (11752326_a_at) / Fold change /veh ANKRD19P (11752326_a_at) / RFU OR2T12 /// OR2T33 /// OR2T8 (11738714_s_at) / Fold change /veh OR2T12 /// OR2T33 /// OR2T8 (11738714_s_at) / RFU VCAN (11748164_a_at) / Fold change /veh VCAN (11748164_a_at) / RFU JSRP1 (11732532_at) / Fold change /veh JSRP1 (11732532_at) / RFU KRTAP10-11 (11738290_x_at) / Fold change /veh KRTAP10-11 (11738290_x_at) / RFU MYO3A (11730013_a_at) / Fold change /veh MYO3A (11730013_a_at) / RFU EBF3 (11725865_a_at) / Fold change /veh EBF3 (11725865_a_at) / RFU CAMK2N1 (11719241_x_at) / Fold change /veh CAMK2N1 (11719241_x_at) / RFU C5orf56 (11738088_a_at) / Fold change /veh C5orf56 (11738088_a_at) / RFU OLFML3 (11715873_a_at) / Fold change /veh OLFML3 (11715873_a_at) / RFU LOC100653217 /// NTM (11731650_a_at) / Fold change /veh LOC100653217 /// NTM (11731650_a_at) / RFU MAPK11 (11762145_a_at) / Fold change /veh MAPK11 (11762145_a_at) / RFU FIZ1 (11724087_x_at) / Fold change /veh FIZ1 (11724087_x_at) / RFU OASL (11726364_x_at) / Fold change /veh OASL (11726364_x_at) / RFU SOX15 (11748057_x_at) / Fold change /veh SOX15 (11748057_x_at) / RFU CD79A (11719716_a_at) / Fold change /veh CD79A (11719716_a_at) / RFU HIST1H1D (11736915_at) / Fold change /veh HIST1H1D (11736915_at) / RFU CASKIN2 (11723855_a_at) / Fold change /veh CASKIN2 (11723855_a_at) / RFU LOC730098 (11760151_x_at) / Fold change /veh LOC730098 (11760151_x_at) / RFU OR4N2 (11742367_at) / Fold change /veh OR4N2 (11742367_at) / RFU PRRT2 (11749266_a_at) / Fold change /veh PRRT2 (11749266_a_at) / RFU SNX32 (11753110_a_at) / Fold change /veh SNX32 (11753110_a_at) / RFU CDHR5 (11726645_a_at) / Fold change /veh CDHR5 (11726645_a_at) / RFU RCAN1 (11760418_a_at) / Fold change /veh RCAN1 (11760418_a_at) / RFU FAM167A (11723789_a_at) / Fold change /veh FAM167A (11723789_a_at) / RFU FAM26E (11764081_at) / Fold change /veh FAM26E (11764081_at) / RFU ISYNA1 (11749810_s_at) / Fold change /veh ISYNA1 (11749810_s_at) / RFU ACY1 (11761880_at) / Fold change /veh ACY1 (11761880_at) / RFU 11764098_at / Fold change /veh 11764098_at / RFU SAMD14 (11745864_x_at) / Fold change /veh SAMD14 (11745864_x_at) / RFU NPB (11741838_a_at) / Fold change /veh NPB (11741838_a_at) / RFU TMPRSS6 (11731388_a_at) / Fold change /veh TMPRSS6 (11731388_a_at) / RFU KRTAP10-2 (11738614_at) / Fold change /veh KRTAP10-2 (11738614_at) / RFU ARHGAP8 /// PRR5-ARHGAP8 (11727945_x_at) / Fold change /veh ARHGAP8 /// PRR5-ARHGAP8 (11727945_x_at) / RFU KRTAP5-7 /// NADSYN1 (11734609_at) / Fold change /veh KRTAP5-7 /// NADSYN1 (11734609_at) / RFU RASL12 (11751679_a_at) / Fold change /veh RASL12 (11751679_a_at) / RFU CDKN2B (11736163_a_at) / Fold change /veh CDKN2B (11736163_a_at) / RFU PRF1 (11729649_at) / Fold change /veh PRF1 (11729649_at) / RFU, ZNF638 /// ZNF638-IT1 / Fold change vs veh, ZNF638 /// ZNF638-IT1 / RFU, PANK3 / Fold change vs veh, PANK3 / RFU, SH3YL1 / Fold change vs veh, SH3YL1 / RFU, ZEB2 / Fold change vs veh, ZEB2 / RFU, NRIP1 / Fold change vs veh, NRIP1 / RFU, PTTG1IP / Fold change vs veh, PTTG1IP / RFU, CAPN2 / Fold change vs veh, CAPN2 / RFU, MED14 / Fold change vs veh, MED14 / RFU, SNORA58 / Fold change vs veh, SNORA58 / RFU, C1orf63 / Fold change vs veh, C1orf63 / RFU, LRRFIP1 / Fold change vs veh, LRRFIP1 / RFU, NDUFAF7 / Fold change vs veh, NDUFAF7 / RFU, SLC12A2 / Fold change vs veh, SLC12A2 / RFU, IBTK / Fold change vs veh, IBTK / RFU, ESF1 / Fold change vs veh, ESF1 / Fold change vs veh, TMEM50B / RFU, TAOK1 / Fold change vs veh, TAOK1 / RFU, ACBD3 / Fold change vs veh, ACBD3 / RFU, TMA16 / Fold change vs veh, TMA16 / RFU, RWDD3 / Fold change vs veh, RWDD3 / RFU, BCAT1 / Fold change vs veh, BCAT1 / RFU, EDEM3 / Fold change vs veh, EDEM3 / RFU, TMEM33 / Fold change vs veh, TMEM33 / RFU, WDR75 / Fold change vs veh, WDR75 / RFU, AHCTF1 / Fold change vs veh, AHCTF1 / RFU, TFRC / Fold change vs veh, TFRC / RFU, ZDHHC17 / Fold change vs veh, ZDHHC17 / RFU, NOM1 / Fold change vs veh, NOM1 / RFU, ARL8B / Fold change vs veh, ARL8B / RFU, ZBTB11 / Fold change vs veh, ZBTB11 / RFU, TAMM41 / Fold change vs veh, TAMM41 / RFU, KIAA1704 /// LOC100996395 / Fold change vs veh, KIAA1704 /// LOC100996395 / RFU, ING1 / Fold change vs veh, ING1 / RFU, TRMT61B / Fold change vs veh, TRMT61B / RFU, FUBP3 / Fold change vs veh, FUBP3 / RFU, TP53 / Fold change vs veh, TP53 / RFU, TNKS2 / Fold change vs veh, TNKS2 / RFU, ZFP14 / Fold change vs veh, ZFP14 / RFU, ACTR2 / Fold change vs veh, ACTR2 / RFU, PPP3R1 / Fold change vs veh, PPP3R1 / RFU, PIK3R1 / Fold change vs veh, PIK3R1 / RFU, HNRNPA1 / Fold change vs veh, HNRNPA1 / RFU, RNF170 / Fold change vs veh, RNF170 / RFU, ZNF28 / Fold change vs veh, ZNF28 / RFU, RNGTT / Fold change vs veh, RNGTT / RFU, OGT / Fold change vs veh, OGT / RFU, BRD1 / Fold change vs veh, BRD1 / RFU, MARS / Fold change vs veh, MARS / RFU, ZNF655 / Fold change vs veh, ZNF655 / RFU, FAHD1 / Fold change vs veh, FAHD1 / RFU, BDP1 / Fold change vs veh, BDP1 / RFU, LRRCC1 / Fold change vs veh, LRRCC1 / RFU, ARID1A / Fold change vs veh, ARID1A / RFU, ZNF146 / Fold change vs veh, ZNF146 / RFU, ZNF330 / Fold change vs veh, ZNF330 / RFU, GPN3 / Fold change vs veh, GPN3 / RFU, C9orf123 / Fold change vs veh, C9orf123 / RFU, N4BP2L2 / Fold change vs veh, N4BP2L2 / RFU, ARFIP1 / Fold change vs veh, ARFIP1 / RFU, FAM179B / Fold change vs veh, FAM179B / RFU, BCL10 / Fold change vs veh, BCL10 / RFU, UHRF1BP1L / Fold change vs veh, UHRF1BP1L / RFU, BET1 / Fold change vs veh, BET1 / RFU, CNOT2 / Fold change vs veh, CNOT2 / RFU, ZNF268 / Fold change vs veh, ZNF268 / Fold change vs veh, ZNF507 / RFU, DGCR2 / Fold change vs veh, DGCR2 / RFU, WDSUB1 / Fold change vs veh, WDSUB1 / Fold change vs veh, HSP90B1 /// MIR3652 / RFU, ADSS / Fold change vs veh, ADSS / RFU, GK / Fold change vs veh, GK / RFU, ZNF148 / Fold change vs veh, ZNF148 / RFU, TAF9 / Fold change vs veh, TAF9 / RFU, SLC1A5 / Fold change vs veh, SLC1A5 / RFU, SLMO2 / Fold change vs veh, SLMO2 / RFU, ABCC4 / Fold change vs veh, ABCC4 / RFU, LOC101060439 /// RAP1B / Fold change vs veh, LOC101060439 /// RAP1B / RFU, RFX7 / Fold change vs veh, RFX7 / RFU, GTPBP10 / Fold change vs veh, GTPBP10 / RFU, CNEP1R1 / Fold change vs veh, CNEP1R1 / RFU, BIVM-ERCC5 /// ERCC5 / Fold change vs veh, BIVM-ERCC5 /// ERCC5 / RFU, ILF3 / Fold change vs veh, ILF3 / RFU 11762660_at / Fold change /veh 11762660_at / RFU VCAN (11757783_s_at) / Fold change /veh VCAN (11757783_s_at) / RFU DDX43 (11728927_at) / Fold change /veh DDX43 (11728927_at) / RFU KRT8 (11758188_x_at) / Fold change /veh KRT8 (11758188_x_at) / RFU NKD1 (11759106_at) / Fold change /veh NKD1 (11759106_at) / RFU SRD5A1 (11742802_a_at) / Fold change /veh SRD5A1 (11742802_a_at) / RFU TPSAB1 /// TPSB2 (11721975_s_at) / Fold change /veh TPSAB1 /// TPSB2 (11721975_s_at) / RFU GSTM3 (11746129_a_at) / Fold change /veh GSTM3 (11746129_a_at) / RFU IL23R (11737362_x_at) / Fold change /veh IL23R (11737362_x_at) / RFU TMEM51 (11727254_a_at) / Fold change /veh TMEM51 (11727254_a_at) / RFU PIWIL2 (11732686_x_at) / Fold change /veh PIWIL2 (11732686_x_at) / RFU ORM1 (11744905_x_at) / Fold change /veh ORM1 (11744905_x_at) / RFU CCDC152 (11743942_at) / Fold change /veh CCDC152 (11743942_at) / RFU ECM1 (11717891_a_at) / Fold change /veh ECM1 (11717891_a_at) / RFU IL23R (11748794_a_at) / Fold change /veh IL23R (11748794_a_at) / RFU TNFAIP8L3 (11732012_x_at) / Fold change /veh TNFAIP8L3 (11732012_x_at) / RFU MBOAT4 (11741988_at) / Fold change /veh MBOAT4 (11741988_at) / RFU 11764193_at / Fold change /veh 11764193_at / RFU TMEM53 (11763286_at) / Fold change /veh TMEM53 (11763286_at) / RFU MAGEB2 (11727129_at) / Fold change /veh MAGEB2 (11727129_at) / RFU TMEM200A (11744735_a_at) / Fold change /veh TMEM200A (11744735_a_at) / RFU CCDC152 (11751479_a_at) / Fold change /veh CCDC152 (11751479_a_at) / RFU FAM211A (11726209_a_at) / Fold change /veh FAM211A (11726209_a_at) / RFU RGS16 (11746705_a_at) / Fold change /veh RGS16 (11746705_a_at) / RFU VCAN (11755009_s_at) / Fold change /veh VCAN (11755009_s_at) / RFU RHOB (11743442_s_at) / Fold change /veh RHOB (11743442_s_at) / RFU RGS16 (11720943_a_at) / Fold change /veh RGS16 (11720943_a_at) / RFU RGS16 (11720944_at) / Fold change /veh RGS16 (11720944_at) / RFU, VPS4B / Fold change vs veh, VPS4B / RFU, CREB1 / Fold change vs veh, CREB1 / RFU, DNAJC13 / Fold change vs veh, DNAJC13 / RFU, GNAQ / Fold change vs veh, GNAQ / RFU, CDK5R1 / Fold change vs veh, CDK5R1 / RFU, ZRANB3 / Fold change vs veh, ZRANB3 / RFU, CUL4A / Fold change vs veh, CUL4A / RFU, CCNY / Fold change vs veh, CCNY / RFU, UFL1 / Fold change vs veh, UFL1 / RFU, COG3 / Fold change vs veh, COG3 / RFU, DIAPH2 / Fold change vs veh, DIAPH2 / RFU, SKA2 / Fold change vs veh, SKA2 / RFU, AFF3 / Fold change vs veh, AFF3 / RFU, LMF1 / Fold change vs veh, LMF1 / RFU, IPO11 / Fold change vs veh, IPO11 / RFU, DFFB / Fold change vs veh, DFFB / RFU, FOXP1 / Fold change vs veh, FOXP1 / RFU, CARD8 / Fold change vs veh, CARD8 / RFU, STRN3 / Fold change vs veh, STRN3 / RFU, ADK / Fold change vs veh, ADK / RFU, RASSF2 / Fold change vs veh, RASSF2 / RFU, WIPF1 / Fold change vs veh, WIPF1 / RFU, LARP1B / Fold change vs veh, LARP1B / RFU, RASA1 / Fold change vs veh, RASA1 / RFU, RB1 / Fold change vs veh, RB1 / RFU, PPFIA1 / Fold change vs veh, PPFIA1 / RFU, MAT2A / Fold change vs veh, MAT2A / RFU, CCT5 / Fold change vs veh, CCT5 / RFU, WDR92 / Fold change vs veh, WDR92 / RFU, CUX1 / Fold change vs veh, CUX1 / RFU, TTC7A / Fold change vs veh, TTC7A / RFU, TMEM135 / Fold change vs veh, TMEM135 / RFU, DEPTOR / Fold change vs veh, DEPTOR / RFU, CPM / Fold change vs veh, CPM / RFU, DNAJB6 / Fold change vs veh, DNAJB6 / RFU, CACNA2D3 / Fold change vs veh, CACNA2D3 / RFU, DTX4 / Fold change vs veh, DTX4 / RFU, TFCP2 / Fold change vs veh, TFCP2 / RFU, GMCL1 /// GMCL1P1 / Fold change vs veh, GMCL1 /// GMCL1P1 / RFU, AEBP2 / Fold change vs veh, AEBP2 / RFU, SNHG1 /// SNORD22 /// SNORD25 /// SNORD26 /// SNORD27 /// SNORD28 /// SNORD29 /// SNORD31 / Fold change vs veh, SNHG1 /// SNORD22 /// SNORD25 /// SNORD26 /// SNORD27 /// SNORD28 /// SNORD29 /// SNORD31 / Fold change (Aza/veh), C12orf56 (ProbeSet 11735607_a_at) / Fold change (ACY-1035/veh), C12orf56 (ProbeSet 11735607_a_at) / Fold change (Aza/veh), FGFR1OP (ProbeSet 11751329_s_at) / Fold change (ACY-1035/veh), FGFR1OP (ProbeSet 11751329_s_at) / Fold change (Aza/veh), VPS36 (ProbeSet 11739960_a_at) / Fold change (ACY-1035/veh), VPS36 (ProbeSet 11739960_a_at) / RFU SYPL1 (11715823_x_at) / Fold change /veh SYPL1 (11715823_x_at) / RFU IGFBP7 (11715501_s_at) / Fold change /veh IGFBP7 (11715501_s_at) / RFU REEP3 (11722064_at) / Fold change /veh REEP3 (11722064_at) / RFU IGLL1 (11728026_x_at) / Fold change /veh IGLL1 (11728026_x_at): dose or concentration left out as unconfirmed
Conditions: ProbeSet 11728879_at; LIST B

## Nc1ccc(-c2cccs2)cc1NC(=O)c1ccc2c(c1)cc(C1CC1)n2CCN1CCOCC1 [ACY-1035]
  RFU, PPP3R1: 371.71 RFU
